In patent US20100004159A1, “SUBSTITUTED IMIDAZOLONE DERIVATIVES, PREPARATIONS AND USES” (GENFIT, priority 2006, published 2010):

Structure (SMILES) | melting point
CCCCC1=NC2(CCCC2)C(=O)N1Cc1ccc(C(=O)c2ccccc2OC(C)(C)C(=O)O)cc1 [Compound 7, 2-butyl-1-[[4-[(2-((1-carboxyl-1,1-dimethylmethyl)oxy)phenyl)carbonyl]phenyl]methyl]-4-spirocyclopentyl-1H-imidazol-5(4H)-one] | 85 to 90 °C
CCCCC1=NC2(CCCC2)C(=O)N1Cc1ccc(-c2cc(OC(C)(C)C(=O)O)ccc2Br)cc1 [Compound 12, 1-[(6′-bromo-3′-((1-carboxy-1,1-dimethylmethyl)oxy)biphenyl-4-yl)methyl]-2-butyl-4-spirocyclopentyl-1H-imidazol-5(4H)-one] | 174 to 176 °C
CCCCC1=NC(CC)(CC)C(=O)N1Cc1ccc(-c2cc(OC(C(=O)O)C(C)C)ccc2F)cc1 (stereo not shown) [Compound 68, 2-butyl-1-[(3′-((1-carboxy-1-(1,1-dimethylmethyl)methyl)oxy)-6′-fluoro-biphenyl-4-yl)methyl]-4,4-diethyl-1H-imidazol-5(4H)one] | 65 °C
CCCCC1=NC2(CCCC2)C(=O)N1Cc1ccc(-c2ccc([N+](=O)[O-])c(OC(C)(C)C(=O)O)c2)cc1 [Compound 95, 2-butyl-1-[(3′-((1-carboxy-1,1-dimethylmethyl)oxy)-4′-nitro-biphenyl-4-yl)methyl]-4-spirocyclopentyl-1H-imidazol-5(4H)-one] | < 50 °C
CCCCC1=NC2(CCCCC2)C(=O)N1Cc1ccc(-c2cccc(OCC(=O)O)c2)cc1 [Compound 52, 2-butyl-1-[(3′-((1-carboxymethyl)oxy)biphenyl-4-yl)methyl]-4-spirocyclohexyl-1H-imidazol-5(4H)-one] | 82 to 85 °C
CC(C)(Oc1cccc(-c2ccc(CN3C(=O)C4(CCCC4)N=C3C3CC3)cc2)c1)C(=O)O [Compound 29, 1-[(3′-((1-carboxy-1,1-dimethylmethyl)oxy)biphenyl-4-yl)methyl]-2-cyclopropyl-4-spirocyclopentyl-1H-imidazol-5(4H)-one] | 175 to 177 °C
CCCCC1=NC2(CCCCC2)C(=O)N1Cc1ccc(-c2cc(OC(C)(C)C(=O)O)ccc2F)cc1 [Compound 60, 2-butyl-1-[(3′-((1-carboxy-1,1-dimethylmethyl)oxy)-6′-fluoro-biphenyl-4-yl)methyl]-4-spirocyclohexyl-1H-imidazol-5(4H)-one] | 72 °C
CCCCC1=NC2(CCCC2)C(=O)N1Cc1ccc(-c2cc(OC(C)C(=O)O)ccc2CCC)cc1 (stereo not shown) [Compound 83, 2-butyl-1-[(3′-((1-carboxy-1-methylmethyl)oxy)-6′-propyl-biphenyl-4-yl)methyl]-4-spirocyclopentyl-1H-imidazol-5(4H)-one] | 76 °C
CCCCC1=NC2(CCCCC2)C(=O)N1Cc1ccc(-c2cc(OC(C(=O)O)C(C)C)ccc2F)cc1 (stereo not shown) [Compound 59, 2-butyl-1-[(3′-((1-carboxy-1-(1,1-dimethylmethyl)-methyl)oxy)-6′-fluoro-biphenyl-4-yl)methyl]-4-spirocyclohexyl-1H-imidazol-5(4H)-one] | 95 °C
CCCCC1=NC2(CCCC2)C(=O)N1Cc1ccc(-c2cc(OC(C)(C)C(=O)O)ccc2CCC)cc1 [Compound 76, 2-butyl-1-[(3′-((1-carboxy-1,1-dimethylmethyl)oxy)-6′-propyl-biphenyl-4-yl)methyl]-4-spirocyclopentyl-1H-imidazol-5(4H)-one] | < 60 °C
CCCCC1=NC2(CCCC2)C(=O)N1Cc1cccc(-c2ccc(OC(C)(C)C(=O)O)cc2)c1 [Compound 77, 2-butyl-1-[(4′-((1-carboxy-1,1-dimethylmethyl)oxy)biphenyl-3-yl)methyl]-4-spirocyclopentyl-1H-imidazol-5(4H)-one] | 170 °C
CCCCC1=NC(C)(C)C(=O)N1Cc1ccc(C(=O)c2cccc(OC(C)(C)C(=O)O)c2)cc1 [Compound 14, 2-butyl-1-[[4-[(3-((1-carboxyl-1,1-dimethylmethyl)oxy)phenyl)carbonyl]phenyl]methyl]-4,4-dimethyl-1H-imidazol-5(4H)-one] | 167 to 169 °C
CCCCC1=NC2(CCCC2)C(=O)N1Cc1ccc(-c2ccccc2OC(C)(C)C(=O)O)cc1 [Compound 6, 2-butyl-1-[(2′-((1-carboxy-1,1-dimethylmethyl)oxy)biphenyl-4-yl)methyl]-4-spirocyclopentyl-1H-imidazol-5(4H)-one] | 74 to 80 °C
CCCCC1=NC2(CCCCC2)C(=O)N1Cc1ccc(-c2cccc(OC3(C(=O)O)CCC3)c2)cc1 [Compound 67, 2-butyl-1-[(3′-((1-carboxy-1-spirocyclobutylmethyl)oxy)biphenyl-4-yl)methyl]-4-spirocyclohexyl-1H-imidazol-5(4H)-one] | 184 °C
CCCCC1=NC2(CCCC2)C(=O)N1Cc1ccc(Cc2ccc(OC(C)(C)C(=O)O)cc2)cc1 [Compound 31] | 147 to 149 °C
CCCCC1=NC2(CCCC2)C(=O)N1Cc1ccc(-c2cccc(OC(C)(C)C(=O)O)c2F)cc1 [Compound 78, 2-butyl-1-[(3′-((1-carboxy-1,1-dimethylmethyl)oxy)-2′-fluoro-biphenyl-4-yl)methyl]-4-spirocyclopentyl-1H-imidazol-5(4H)-one] | 162 °C
CCCCC1=NC2(CCCCC2)C(=O)N1Cc1ccc(-c2cccc(OC(C)C(=O)O)c2)c(C)c1 (stereo not shown) [Compound 70, 2-butyl-1-[(3′-((1-carboxy-1-methylmethyl)oxy)-3-methyl-biphenyl-4-yl)methyl]-4-spirocyclohexyl-1H-imidazol-5(4H)one] | 81 °C
CCCCC1=NC(CC)(CC)C(=O)N1Cc1ccc(-c2cc(OC(C)(C)C(=O)O)ccc2F)cc1 [Compound 69] | 62 °C
CCCCC1=NC2(CCCCC2)C(=O)N1Cc1ccc(-c2cc(OC(C)(C)C(=O)O)ccc2Br)cc1 [Compound 22, 1-[(6′-bromo-3′-((1-carboxy-1,1-dimethylmethyl)oxy)biphenyl-4-yl)methyl]-2-butyl-4-spirocyclohexyl-1H-imidazol-5(4H)-one] | 170 to 172 °C
CCCCC1=NC2(CCCC2)C(=O)N1Cc1cccc(-c2ccccc2OC(C)(C)C(=O)O)c1 [Compound 75, 2-butyl-1-[(2′-((1-carboxy-1,1-dimethylmethyl)oxy)biphenyl-3-yl)methyl]-4-spirocyclopentyl-1H-imidazol-5(4H)-one] | 167 °C
CCCCC1=NC2(CCCC2)C(=O)N1Cc1ccc(-c2cc(OC(CC)C(=O)O)ccc2CCC)cc1 (stereo not shown) [Compound 85, 2-butyl-1-[(3′-((1-carboxy-1-ethylmethyl)oxy)-6′-propyl-biphenyl-4-yl)methyl]-4-spirocyclopentyl-1H-imidazol-5(4H)-one] | 74 °C
CCCCC1=NC2(CCCCC2)C(=O)N1Cc1ccc(C(=O)c2cccc(OC(C)(C)C(=O)O)c2)cc1 [Compound 11, 2-butyl-1-[[4-[(3-((1-carboxyl-1,1-dimethylmethyl)oxy)phenyl)carbonyl]phenyl]methyl]-4-spirocyclohexyl-1H-imidazol-5(4H)-one] | 68 to 75 °C
CCCCC1=NC2(CCCC2)C(=O)N1CCc1ccc(OC(C)(C)C(=O)O)cc1 [Compound 3, 2-butyl-1-[2-(4-((1-carboxy-1,1-dimethylmethyl)oxy)phenyl)ethyl]-4-spirocyclopentyl-1H-imidazol-5(4H)-one] | 50 to 53 °C
CCCCC1=NC(c2ccccc2)C(=O)N1Cc1ccc(C(=O)c2ccc(OC(C)(C)C(=O)O)cc2)cc1 (stereo not shown) [Compound 20, 2-butyl-1-[[4-[(4-((1-carboxy-1,1-dimethylmethyl)oxy)phenyl)carbonyl]phenyl]methyl]-4-phenyl-1H-imidazol-5(4H)-one] | 215 to 217 °C
CCCCC1=NC2(CCCC2)C(=O)N1Cc1ccc(-c2cccc(OC(C)(C)C(=O)O)c2)cc1C [Compound 91] | 160 °C
CC(C)(Oc1cccc(-c2ccc(CN3C(=O)C4(CCCC4)N=C3Cc3ccccc3)cc2)c1)C(=O)O [Compound 28, 2-benzyl-1-[(3′-((1-carboxy-1,1-dimethylmethyl)oxy)biphenyl-4-yl)methyl]-4-spirocyclopentyl-1H-imidazol-5(4H)-one] | 149 to 153 °C
CCCCC1=NC(c2ccccc2)C(=O)N1Cc1ccc(C(=O)c2cccc(OC(C)(C)C(=O)O)c2)cc1 (stereo not shown) [Compound 15, 2-butyl-1-[[4-[(3-((1-carboxy-1,1-dimethylmethyl)oxy)phenyl)carbonyl]phenyl]methyl]-4-phenyl-1H-imidazol-5(4H)-one] | 115 to 120 °C
CCCCC1=NC2(CCCC2)C(=O)N1Cc1ccc(C(=O)c2ccc(OC(C)(C)C(=O)O)cc2)cc1 [Compound 9, 2-butyl-1-[[4-[(4-((1-carboxyl-1,1-dimethylmethyl)oxy)phenyl)carbonyl]phenyl]methyl]-4-spirocyclopentyl-1H-imidazol-5(4H)-one] | 90 to 99 °C
